A word on the EC50: it is the concentration that produces a half-maximal response.

Data on 10 compounds can be found in patent publication US20250170266A1 (ZYMEWORKS BC INC., priority 2022, published 2025).

Common to all, as to assay type: cell-based
Test [1] deals with Human peripheral blood mononuclear cells (PBMCs). In words: Human PBMC Assay, cytokine release (HTRF). The conditions noted are these: 24 hours; for EC50: PBMC. From the text: Human peripheral blood mononuclear cells (PBMCs) were isolated from fresh Leukopak using magnetic separation. Briefly, erythrocytes and granulocytes were magnetically labeled with Erythrocyte Depletion MicroBeads (Miltenyi Biotec) and Granulocyte Depletion MicroBeads (Miltenyi Biotec), respectively. The cell suspension was loaded onto a Multi-24 Column Block (Miltenyi Biotec) and placed in the magnetic field of a MultiMACS Cell24 Separator Plus (Miltenyi Biotec). The unlabelled PBMCs were collected in the run through. PBMCs were resuspended in CryoStor® CS10 ([…]) and frozen. On the day before the assay, PBMCs were thawed in warm assay buffer (RPMI+10% FBS) and resuspended in assay buffer+10 ng/ml hIL3 (R&D Systems). Cells were rested at 37° C.+5% CO2 overnight. The following day, cells were spun down and resuspended in fresh assay buffer. 300,000 cells were added to each well of plates containing test compound. For test compound preparation, each compound was initially diluted to 1 mM in DMSO and further diluted in assay buffer. A 4-fold 11-point titration starting from 15 μM was performed. Cells were incubated with test compound at 37° C.+5% CO2 for 24 hours before supernatant was harvested. Human interleukin 6 (hIL6), human tumor necrosis factor alpha (hTNFα), and human interferon alpha (hIFNα) were quantified in the supernatant using homogeneous time resolved fluorescence (Cisbio).
(§1) Each assay included a positive control compound (referred to herein as “benchmark,” see, e.g., TABLE 3 below, and taken from International Patent Publication No. WO2017/072662, structure shown below) and a negative control (growth medium). […] The structure of the benchmark compound from International Patent Publication No. WO 2017/072662 is as follows: […]
Background: In TR-FRET formats the signal depends on donor and acceptor labels being close together.

Another test has as its target T1, hTLR7 (Homo sapiens, UniProt Q9NYK1).
T1 construct: host or cells: HEK-Blue hTLR7 reporter cells (HEK293-derived, own knowledge)
T1 sequence (Q9NYK1 27-1049): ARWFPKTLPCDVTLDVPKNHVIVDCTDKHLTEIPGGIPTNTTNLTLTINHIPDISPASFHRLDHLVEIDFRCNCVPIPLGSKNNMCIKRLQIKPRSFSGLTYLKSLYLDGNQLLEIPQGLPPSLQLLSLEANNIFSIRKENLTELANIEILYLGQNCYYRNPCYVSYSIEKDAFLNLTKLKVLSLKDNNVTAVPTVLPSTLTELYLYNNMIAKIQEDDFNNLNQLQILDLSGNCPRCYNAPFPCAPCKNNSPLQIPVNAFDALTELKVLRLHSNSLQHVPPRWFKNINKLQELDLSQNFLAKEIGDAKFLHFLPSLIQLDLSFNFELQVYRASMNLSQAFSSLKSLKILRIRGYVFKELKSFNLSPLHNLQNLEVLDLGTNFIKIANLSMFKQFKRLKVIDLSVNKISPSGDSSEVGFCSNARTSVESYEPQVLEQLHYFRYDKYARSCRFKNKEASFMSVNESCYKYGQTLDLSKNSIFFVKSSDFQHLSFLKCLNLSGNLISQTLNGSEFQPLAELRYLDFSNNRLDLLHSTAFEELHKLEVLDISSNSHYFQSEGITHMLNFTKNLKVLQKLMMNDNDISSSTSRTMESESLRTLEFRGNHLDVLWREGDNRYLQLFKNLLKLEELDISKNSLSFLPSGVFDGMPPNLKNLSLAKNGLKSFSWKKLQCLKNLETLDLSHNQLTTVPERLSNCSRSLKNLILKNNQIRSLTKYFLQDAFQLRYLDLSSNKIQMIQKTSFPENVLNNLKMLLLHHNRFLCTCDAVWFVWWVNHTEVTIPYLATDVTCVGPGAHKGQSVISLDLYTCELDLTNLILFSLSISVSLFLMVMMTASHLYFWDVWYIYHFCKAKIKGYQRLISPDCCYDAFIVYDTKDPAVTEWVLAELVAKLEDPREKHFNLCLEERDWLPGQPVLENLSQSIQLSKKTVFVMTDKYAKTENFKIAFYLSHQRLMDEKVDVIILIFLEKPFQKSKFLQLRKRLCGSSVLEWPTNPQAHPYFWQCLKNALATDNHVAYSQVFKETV
The experiment in a line: Reporter Gene Assay (RGA), HEK-Blue hTLR7 reporter cells, SEAP readout. The conditions noted are these: overnight incubation, SEAP absorbance 620 nm. The protocol:
(§2) 1.5×10^4 HEK-Blue™ hTLR7 (Invivogen, San Diego, CA) or HEK-Blue™ mTLR7 (Invivogen, San Diego, CA) reporter cells were treated with a titration series of test compound (4-fold titration from […], 11 points). Compounds were initially diluted to 1 mM in DMSO and subsequently serial-diluted in assay media (HEK-Blue™ Detection; Invivogen, San Diego, CA). Cells with test compound were incubated overnight at 37° C.+5% CO2, and the amount of secreted embryonic alkaline phosphatase (SEAP) was determined by measuring absorbance (620 nm) using a Synergy™ H1 microplate reader.
as §1
(Reporter assays use an easily measured gene product as a stand-in for the process of interest.)

The target of a further test is T2, mTLR7 (Mus musculus, UniProt P58681).
T2 construct: host or cells: HEK-Blue mTLR7 reporter cells (HEK293-derived, own knowledge)
T2 sequence (P58681 27-1050): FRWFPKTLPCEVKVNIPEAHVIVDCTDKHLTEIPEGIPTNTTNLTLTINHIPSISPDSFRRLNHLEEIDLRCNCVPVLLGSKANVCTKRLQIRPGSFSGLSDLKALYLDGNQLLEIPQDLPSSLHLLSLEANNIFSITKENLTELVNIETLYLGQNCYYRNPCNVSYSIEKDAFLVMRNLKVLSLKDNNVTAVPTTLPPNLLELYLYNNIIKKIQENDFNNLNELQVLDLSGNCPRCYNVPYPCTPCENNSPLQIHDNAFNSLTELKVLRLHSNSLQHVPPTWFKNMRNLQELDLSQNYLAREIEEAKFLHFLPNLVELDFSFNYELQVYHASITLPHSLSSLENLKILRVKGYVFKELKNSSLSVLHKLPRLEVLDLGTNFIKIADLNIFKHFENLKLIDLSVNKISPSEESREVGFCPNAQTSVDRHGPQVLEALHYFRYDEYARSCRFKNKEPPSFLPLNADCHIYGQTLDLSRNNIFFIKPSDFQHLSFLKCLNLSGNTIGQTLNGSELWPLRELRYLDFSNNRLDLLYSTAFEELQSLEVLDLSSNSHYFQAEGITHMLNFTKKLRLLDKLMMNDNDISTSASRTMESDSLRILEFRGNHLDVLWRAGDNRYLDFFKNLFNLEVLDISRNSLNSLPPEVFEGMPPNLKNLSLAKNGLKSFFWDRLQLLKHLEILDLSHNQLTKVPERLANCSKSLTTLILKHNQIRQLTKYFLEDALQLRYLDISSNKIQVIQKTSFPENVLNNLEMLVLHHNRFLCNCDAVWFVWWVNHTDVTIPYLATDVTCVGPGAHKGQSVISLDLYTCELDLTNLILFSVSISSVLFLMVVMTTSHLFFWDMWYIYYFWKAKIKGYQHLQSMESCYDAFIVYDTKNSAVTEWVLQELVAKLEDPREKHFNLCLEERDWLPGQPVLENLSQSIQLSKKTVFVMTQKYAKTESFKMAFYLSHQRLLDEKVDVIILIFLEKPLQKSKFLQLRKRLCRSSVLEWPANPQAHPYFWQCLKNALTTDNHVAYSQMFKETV
In words: Reporter Gene Assay (RGA), HEK-Blue mTLR7 reporter cells, SEAP readout. The conditions noted are these: overnight incubation, SEAP absorbance 620 nm. The protocol:
as §2, §1

The next test concerns Mouse splenocytes. In words: Mouse Splenocyte Assay, cytokine release (HTRF). Particulars: 24 hours, mIL6 in supernatant; for EC50: Splenocyte, read-out: Splenocyte IL6 EC50. The protocol:
Mouse splenocytes were isolated from fresh mouse spleens. Briefly, spleens were harvested from female balb/c nude mice and transferred to a 70 μm cell strainer. The cell strainer was subsequently placed in a 6-well suspension culture plate containing 5 mL media (RPMI+10% FBS). The spleens were crushed against the cell strainer using the flat end of a 10 mL syringe plunger and the cell strainer was washed with 5 mL media. The cell strainer was discarded, and the cell suspension was washed in PBS. Red blood cells were removed using PharmaLyse (BD). The cell suspension was washed in media, resuspended in CryoStor® CS10 ([…]) and frozen. On assay day, mouse splenocytes were thawed in warm assay buffer (RPMI+10% FBS). Cells were spun down and resuspended in fresh assay buffer. 100,000 cells were added to each well of plates containing test compound. For test compound preparation, each compound was initially diluted to 1 mM in DMSO and further diluted in assay buffer. A 4-fold 11-point titration starting from 15 μM was performed. Cells were incubated with test compound at 37° C.+5% CO2 for 24 hours before supernatant was harvested. Murine IL6 (mIL6) and murine TNFα (mTNFα) were quantified in the supernatant using homogeneous time resolved fluorescence (Cisbio).
as §1

Where [2] appears, read: hIFNα in supernatant, EC50 values approximated and divided into groups, read-out: PBMC IFNa EC50.
[3] abbreviates: hIL6 in supernatant, read-out: PBMC IL6 EC50.

Where two headings read alike, the source gives them in different places.

Turning to `CCCCCNc1nc(N)c2nc(O)n(Cc3ccc(CNC4CC(F)(F)C4)cc3)c2n1` [Compound 186, 6-amino-9-(4-(((3,3-difluorocyclobutyl)amino)methyl)benzyl)-2-(pentyl-amino)-9H-purin-8-ol], in test [1] (hIL6 in supernatant), the “PBMC IL6 EC50 (nM)” value was “inactive”. In addition, the EC50 in test [1] (setting [2]) is > 10 nM; on hTLR7 it was 452 nM; at mTLR7 it was 11.1 nM. In addition, the “Splenocyte IL6 EC50 (nM)” value with Mouse splenocytes was “inactive”.
Regarding `CCCCCNc1nc(N)c2nc(O)n(Cc3ccc(CNCCN)cc3)c2n1` [Compound 189, 6-amino-9-(4-(((2-aminoethyl)amino)methyl)benzyl)-2-(pentylamino)-9H-purin-8-ol], the concentration for a half-maximal effect (EC50) in test [1] (setting [2]) is 1 to 10 nM; in test [1] (setting [3]), 151 nM; at hTLR7 it was 698 nM; at mTLR7, 41 nM; in the test on Mouse splenocytes it was 80.6 nM.
Taken in the same sequence, the figures for `CCOc1nc(N)c2nc(O)n(Cc3ccc(CN[C@H](C(=O)O)[C@@H](C)CC)cc3OC)c2n1` [Compound 121, (4-((6-amino-2-ethoxy-8-hydroxy-9H-purin-9-yl)methyl)-3-methoxybenzyl)-L-isoleucine] were > 10 nM, 13300 nM, 343 nM, 772 nM and ≥ 1000 nM.
The corresponding values for `CCOc1nc(N)c2nc(O)n(Cc3ccc(CNCc4ccc(CN)cc4)cc3OC)c2n1` [Compound 105, 6-amino-9-(4-(((4-(aminomethyl)benzyl)amino)methyl)-2-methoxybenzyl)-2-ethoxy-9H-purin-8-ol] are < 0.1 nM, 394 nM, 7 nM, 2.4 nM and 26.2 nM.
Taken in the same sequence, the figures for `CCOc1nc(N)c2nc(O)n(Cc3ccc(CN4CCNCC4)cc3)c2n1` [Compound 150, 6-amino-2-ethoxy-9-(4-(piperazin-1-ylmethyl)benzyl)-9H-purin-8-ol] were 0.1 to 1 nM, 322 nM, 6.9 nM, 83.8 nM and 2130 nM.
Turning to `CCOc1nc(N)c2nc(O)n(Cc3ccc(CN4CCC5(CCNCC5)CC4)cc3OC)c2n1` [Compound 139, 9-(4-((3,9-diazaspiro[5.5]undecan-3-yl)methyl)-2-methoxybenzyl)-6-amino-2-ethoxy-9H-purin-8-ol], the concentration for a half-maximal effect (EC50) is > 10 nM in test [1] (setting [2]); 115 nM in test [1] (setting [3]); 6.5 nM on hTLR7; 96.5 nM at mTLR7; 170 nM in the test with Mouse splenocytes.
As to `CCCCOc1nc(N)c2nc(O)n(Cc3ccc(CCN4CCC(CCN)CC4)cc3OC)c2n1` [Compound 178, 6-amino-9-(4-(2-(4-(2-aminoethyl)piperidin-1-yl)ethyl)-2-methoxybenzyl)-2-butoxy-9H-purin-8-ol], the EC50 in test [1] (setting [2]) was 1 to 10 nM; in test [1] (setting [3]) it was 284 nM; at hTLR7 it was 144 nM; in the test with Mouse splenocytes, 245 nM.
For the compound `CCOc1nc(N)c2nc(O)n(Cc3ccc(CN[C@@H](Cc4ccccc4)C(=O)O)cc3OC)c2n1` [Compound 117, (4-((6-amino-2-ethoxy-8-hydroxy-9H-purin-9-yl)methyl)-3-methoxybenzyl)-L-phenylalanine], the “PBMC IL6 EC50 (nM)” value in test [1] (hIL6 in supernatant) was “inactive”. For the same compound, the results for the EC50 (in test [1] (setting [2]); on hTLR7) were > 10 nM and 13000 nM, respectively. In addition, in the test on Mouse splenocytes, the “Splenocyte IL6 EC50 (nM)” value is “inactive”.
Turning to `CCCCOc1nc(N)c2nc(O)n(Cc3ccc(CCN4CCC(N)CC4)cc3OC)c2n1` [Compound 181, 6-amino-9-(4-(2-(4-aminopiperidin-1-yl)ethyl)-2-methoxybenzyl)-2-butoxy-9H-purin-8-ol], in test [1] (hIL6 in supernatant), the “PBMC IL6 EC50 (nM)” value was “inactive”. In addition, the EC50 in test [1] (setting [2]) is > 10 nM; at hTLR7, 4.5 nM; with Mouse splenocytes, 235 nM.
`CCCCCNc1nc(N)nc2ccn(Cc3ccc(CN4CCN(CCNC(=O)CC(SCC(N)C(=O)O)C(=O)O)CC4)cc3OC)c12` (stereo not drawn) [Benchmark, reference compound]: the concentration giving a half-maximal response (EC50) in test [1] (setting [2]) was 1 to 10 nM; in test [1] (setting [3]), 207 nM; with Mouse splenocytes, 222 nM.
